Measured values from the supplement of paper PMC10307832.

Tests used:
Test in all cases: relative viability (nuclei count vs DMSO), 5 days (fraction); higher = more cells survive
CAL-12T = tested on: CAL-12T
Method in brief: (§1)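 Lung cancer cell lines in 1536-well plates were dosed by pin tool the day after seeding, either with one drug alone or with a fixed anchor-drug dose plus five library-drug doses (not always all listed) in √10 steps. After 5 days, cells were fixed and their nuclei stained in one step (final 0.05% Triton X-100, 1% formaldehyde, 1 ug/ml Hoechst), then counted on 4× images. Relative viability is the nuclei count in treated wells divided by that in vehicle wells. Values are medians of duplicate plates.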

EKVX = tested on: EKVX
Method in brief: as §1

H3255 = tested on: H3255
Method in brief: as §1

HCC-15 = tested on: HCC-15
Method in brief: as §1

HCC-827 = tested on: HCC-827
Method in brief: as §1

LCLC-97TM1 = tested on: LCLC-97TM1
Method in brief: as §1

LK-2 = tested on: LK-2
Method in brief: as §1

NCI-H1355 = tested on: NCI-H1355
Method in brief: as §1

NCI-H1563 = tested on: NCI-H1563
Method in brief: as §1

NCI-H1734 = tested on: NCI-H1734
Method in brief: as §1

NCI-H1755 = tested on: NCI-H1755
Method in brief: as §1

NCI-H1975 = tested on: NCI-H1975
Method in brief: as §1

NCI-H2228 = tested on: NCI-H2228
Method in brief: as §1

NCI-H2405 = tested on: NCI-H2405
Method in brief: as §1

NCI-H322M = tested on: NCI-H322M
Method in brief: as §1

NCI-H520 = tested on: NCI-H520
Method in brief: as §1

NCI-H661 = tested on: NCI-H661
Method in brief: as §1

PC-14 = tested on: PC-14
Method in brief: as §1

PC-3 [JPC-3] = tested on: PC-3 [JPC-3]
Method in brief: as §1

RERF-LC-KJ = tested on: RERF-LC-KJ
Method in brief: as §1

CC(=O)O[C@@]12CO[C@@H]1C[C@H](O)[C@@]1(C)C(=O)[C@H](O)C3=C(C)[C@@H](OC(=O)[C@H](O)[C@@H](NC(=O)OC(C)(C)C)c4ccccc4)C[C@@](O)([C@@H](OC(=O)c4ccccc4)[C@H]21)C3(C)C [Docetaxel] + C[C@]1(O)C[C@@H](c2nc(-c3ccc4ccc(-c5ccccc5)nc4c3)c3c(N)nccn32)C1 [Linsitinib] (partner 1 µM)
relative viability (CAL-12T; first compound 0.0002 µM): 0.725
relative viability (CAL-12T; first compound 0.000632 µM): 0.694
relative viability (CAL-12T; first compound 0.002 µM): 0.303
relative viability (CAL-12T; first compound 0.006325 µM): 0.184
relative viability (CAL-12T; first compound 0.02 µM): 0.14
relative viability (EKVX; first compound 0.0002 µM): 0.899
relative viability (EKVX; first compound 0.000632 µM): 0.804
relative viability (EKVX; first compound 0.002 µM): 0.427
relative viability (EKVX; first compound 0.006325 µM): 0.23
relative viability (EKVX; first compound 0.02 µM): 0.115
relative viability (H3255; first compound 0.0002 µM): 0.824
relative viability (H3255; first compound 0.000632 µM): 0.866
relative viability (H3255; first compound 0.002 µM): 0.516
relative viability (H3255; first compound 0.006325 µM): 0.223
relative viability (H3255; first compound 0.02 µM): 0.209
relative viability (HCC-15; first compound 0.0002 µM): 0.765
relative viability (HCC-15; first compound 0.000632 µM): 0.479
relative viability (HCC-15; first compound 0.002 µM): 0.227
relative viability (HCC-15; first compound 0.006325 µM): 0.244
relative viability (HCC-15; first compound 0.02 µM): 0.162
relative viability (HCC-827; first compound 0.0002 µM): 0.971
relative viability (HCC-827; first compound 0.000632 µM): 0.927
relative viability (HCC-827; first compound 0.002 µM): 0.892
relative viability (HCC-827; first compound 0.006325 µM): 0.438
relative viability (HCC-827; first compound 0.02 µM): 0.347
relative viability (LCLC-97TM1; first compound 0.000632 µM): 0.153
relative viability (LCLC-97TM1; first compound 0.002 µM): 0.155
relative viability (LCLC-97TM1; first compound 0.006325 µM): 0.144
relative viability (LCLC-97TM1; first compound 0.02 µM): 0.112
relative viability (LK-2; first compound 0.0002 µM): 0.534
relative viability (LK-2; first compound 0.000632 µM): 0.445
relative viability (LK-2; first compound 0.002 µM): 0.154
relative viability (LK-2; first compound 0.006325 µM): 0.151
relative viability (LK-2; first compound 0.02 µM): 0.156
relative viability (NCI-H1355; first compound 0.0002 µM): 0.75
relative viability (NCI-H1355; first compound 0.000632 µM): 0.771
relative viability (NCI-H1355; first compound 0.002 µM): 0.467
relative viability (NCI-H1355; first compound 0.006325 µM): 0.297
relative viability (NCI-H1355; first compound 0.02 µM): 0.188
relative viability (NCI-H1563; first compound 0.0002 µM): 1.19
relative viability (NCI-H1563; first compound 0.000632 µM): 1.15
relative viability (NCI-H1563; first compound 0.002 µM): 1.05
relative viability (NCI-H1563; first compound 0.006325 µM): 0.988
relative viability (NCI-H1563; first compound 0.02 µM): 0.617
relative viability (NCI-H1734; first compound 0.0002 µM): 0.918
relative viability (NCI-H1734; first compound 0.000632 µM): 0.825
relative viability (NCI-H1734; first compound 0.002 µM): 0.516
relative viability (NCI-H1734; first compound 0.006325 µM): 0.373
relative viability (NCI-H1734; first compound 0.02 µM): 0.235
relative viability (NCI-H1755; first compound 0.0002 µM): 0.948
relative viability (NCI-H1755; first compound 0.000632 µM): 0.971
relative viability (NCI-H1755; first compound 0.002 µM): 0.48
relative viability (NCI-H1755; first compound 0.006325 µM): 0.384
relative viability (NCI-H1755; first compound 0.02 µM): 0.302
relative viability (NCI-H1975; first compound 0.0002 µM): 0.861
relative viability (NCI-H1975; first compound 0.000632 µM): 0.962
relative viability (NCI-H1975; first compound 0.002 µM): 0.309
relative viability (NCI-H1975; first compound 0.006325 µM): 0.189
relative viability (NCI-H1975; first compound 0.02 µM): 0.161
relative viability (NCI-H2228; first compound 0.0002 µM): 0.326
relative viability (NCI-H2228; first compound 0.000632 µM): 0.197
relative viability (NCI-H2228; first compound 0.002 µM): 0.173
relative viability (NCI-H2228; first compound 0.006325 µM): 0.155
relative viability (NCI-H2228; first compound 0.02 µM): 0.129
relative viability (NCI-H2405; first compound 0.0002 µM): 0.95
relative viability (NCI-H2405; first compound 0.000632 µM): 0.913
relative viability (NCI-H2405; first compound 0.002 µM): 0.667
relative viability (NCI-H2405; first compound 0.006325 µM): 0.438
relative viability (NCI-H2405; first compound 0.02 µM): 0.316
relative viability (NCI-H322M; first compound 0.0002 µM): 0.852
relative viability (NCI-H322M; first compound 0.000632 µM): 0.989
relative viability (NCI-H322M; first compound 0.002 µM): 0.878
relative viability (NCI-H322M; first compound 0.006325 µM): 0.547
relative viability (NCI-H322M; first compound 0.02 µM): 0.374
relative viability (NCI-H520; first compound 0.0002 µM): 1.06
relative viability (NCI-H520; first compound 0.000632 µM): 0.887
relative viability (NCI-H520; first compound 0.002 µM): 0.277
relative viability (NCI-H520; first compound 0.006325 µM): 0.182
relative viability (NCI-H520; first compound 0.02 µM): 0.133
relative viability (NCI-H661; first compound 0.0002 µM): 0.593
relative viability (NCI-H661; first compound 0.000632 µM): 0.683
relative viability (NCI-H661; first compound 0.002 µM): 0.45
relative viability (NCI-H661; first compound 0.006325 µM): 0.449
relative viability (NCI-H661; first compound 0.02 µM): 0.261
relative viability (PC-14; first compound 0.0002 µM): 0.992
relative viability (PC-14; first compound 0.000632 µM): 0.957
relative viability (PC-14; first compound 0.002 µM): 0.606
relative viability (PC-14; first compound 0.006325 µM): 0.152
relative viability (PC-14; first compound 0.02 µM): 0.064
relative viability (PC-3 [JPC-3]; first compound 0.0002 µM): 0.983
relative viability (PC-3 [JPC-3]; first compound 0.000632 µM): 0.96
relative viability (PC-3 [JPC-3]; first compound 0.002 µM): 0.863
relative viability (PC-3 [JPC-3]; first compound 0.006325 µM): 0.37
relative viability (PC-3 [JPC-3]; first compound 0.02 µM): 0.184
relative viability (RERF-LC-KJ; first compound 0.0002 µM): 0.864
relative viability (RERF-LC-KJ; first compound 0.000632 µM): 0.826
relative viability (RERF-LC-KJ; first compound 0.002 µM): 0.504
relative viability (RERF-LC-KJ; first compound 0.006325 µM): 0.207
relative viability (RERF-LC-KJ; first compound 0.02 µM): 0.145
